Among the data in article PMC11285368, “Chasing Red Herrings: Palladium Metal Salt Impurities Feigning KRAS Activity in Biochemical Assays” (Journal of Medicinal Chemistry, 2024) are IC50 values, retold here.

SMILES strings stand for the structures.

Type in all cases: biochemical
For test [1], the system named is off target. In words: MDM2 AlphaScreen, Target #3. On the procedure: (§1) Metal salt solutions for the metal ion interference set (MIIS) were prepared as 10 mM stock solutions in DMSO (see Table 3). All metal salts used have been purchased at highest industrial grade.
Another test has as its target WRN (int.) (Homo sapiens, UniProt Q14191). In words: WRN ADP-Glo, Target #1. The procedure: as §1
In another test the target is T1, beta-Catenin (Homo sapiens, UniProt P35222).
T1 sequence (P35222 1-781): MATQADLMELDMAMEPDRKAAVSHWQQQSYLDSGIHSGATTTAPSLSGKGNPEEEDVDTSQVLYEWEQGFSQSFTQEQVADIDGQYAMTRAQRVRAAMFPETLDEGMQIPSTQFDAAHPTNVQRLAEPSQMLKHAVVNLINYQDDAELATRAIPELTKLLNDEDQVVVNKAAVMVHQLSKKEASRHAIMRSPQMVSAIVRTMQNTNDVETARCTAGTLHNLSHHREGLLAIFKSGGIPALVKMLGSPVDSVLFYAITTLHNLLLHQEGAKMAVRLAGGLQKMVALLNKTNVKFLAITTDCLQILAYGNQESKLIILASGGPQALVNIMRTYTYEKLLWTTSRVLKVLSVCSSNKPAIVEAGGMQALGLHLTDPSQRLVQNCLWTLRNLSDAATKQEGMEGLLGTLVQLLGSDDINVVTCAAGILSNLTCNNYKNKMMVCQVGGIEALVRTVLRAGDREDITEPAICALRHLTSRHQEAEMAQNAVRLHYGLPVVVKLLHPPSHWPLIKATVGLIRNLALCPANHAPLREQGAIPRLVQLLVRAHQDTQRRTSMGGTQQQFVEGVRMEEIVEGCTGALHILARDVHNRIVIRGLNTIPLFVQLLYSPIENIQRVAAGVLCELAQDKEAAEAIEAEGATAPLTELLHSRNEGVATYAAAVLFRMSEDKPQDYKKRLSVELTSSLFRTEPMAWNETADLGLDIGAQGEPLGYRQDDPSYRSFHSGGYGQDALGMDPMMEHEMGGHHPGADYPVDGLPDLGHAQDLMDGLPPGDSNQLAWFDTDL
Briefly: beta-Catenin TR-FRET. The note with it: read-out: Target #1 IC50. On the procedure: as §1
A general note: TR-FRET usually uses a lanthanide donor and a delayed reading to cut background.

In test [2] the test system is off target. Briefly: FKBP51 AlphaScreen, Target #3. The procedure:
as §1
(Alpha assays give light when donor and acceptor beads are brought close together.)

In a further test the target is T2, SOS1 (Homo sapiens, UniProt Q07889).
T2 sequence (Q07889 1-1333): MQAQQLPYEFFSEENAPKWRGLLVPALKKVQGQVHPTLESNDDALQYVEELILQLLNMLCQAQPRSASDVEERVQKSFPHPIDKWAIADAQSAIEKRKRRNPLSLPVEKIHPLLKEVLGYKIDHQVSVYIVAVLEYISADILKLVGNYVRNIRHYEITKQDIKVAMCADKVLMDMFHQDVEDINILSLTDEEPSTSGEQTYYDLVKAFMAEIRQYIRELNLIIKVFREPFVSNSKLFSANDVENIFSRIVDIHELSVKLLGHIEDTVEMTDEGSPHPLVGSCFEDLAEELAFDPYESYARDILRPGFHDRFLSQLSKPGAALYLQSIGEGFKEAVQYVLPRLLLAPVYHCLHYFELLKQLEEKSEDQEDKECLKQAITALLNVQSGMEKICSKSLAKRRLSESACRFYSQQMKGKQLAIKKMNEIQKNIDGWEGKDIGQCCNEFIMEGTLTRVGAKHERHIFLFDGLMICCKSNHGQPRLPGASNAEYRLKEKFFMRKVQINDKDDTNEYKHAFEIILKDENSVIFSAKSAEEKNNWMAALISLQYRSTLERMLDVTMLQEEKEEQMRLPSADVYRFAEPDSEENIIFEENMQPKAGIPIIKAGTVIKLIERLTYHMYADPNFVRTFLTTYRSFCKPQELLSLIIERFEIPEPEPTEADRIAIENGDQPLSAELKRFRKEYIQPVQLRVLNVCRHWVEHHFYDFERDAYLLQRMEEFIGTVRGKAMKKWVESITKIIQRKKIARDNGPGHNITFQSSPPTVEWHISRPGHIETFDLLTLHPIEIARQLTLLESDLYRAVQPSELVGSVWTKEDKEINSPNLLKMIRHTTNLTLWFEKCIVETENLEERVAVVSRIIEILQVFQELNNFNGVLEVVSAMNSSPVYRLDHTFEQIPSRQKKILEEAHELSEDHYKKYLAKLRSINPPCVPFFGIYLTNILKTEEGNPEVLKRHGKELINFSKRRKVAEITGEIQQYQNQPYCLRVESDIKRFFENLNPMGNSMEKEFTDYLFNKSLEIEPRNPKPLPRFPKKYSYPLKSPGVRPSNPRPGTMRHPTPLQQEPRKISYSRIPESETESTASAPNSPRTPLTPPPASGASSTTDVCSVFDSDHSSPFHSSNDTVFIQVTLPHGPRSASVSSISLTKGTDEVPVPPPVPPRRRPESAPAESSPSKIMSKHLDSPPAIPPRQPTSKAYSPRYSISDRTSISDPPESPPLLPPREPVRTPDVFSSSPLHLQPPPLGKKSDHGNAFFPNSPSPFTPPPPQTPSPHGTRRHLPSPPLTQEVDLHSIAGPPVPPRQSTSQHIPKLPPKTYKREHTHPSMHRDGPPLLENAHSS
Briefly: SOS1 AlphaScreen, Target #1. The procedure:
as §1

The next test deals with off-target (int.). Briefly: WRN ADP-Glo, Target #3. On the procedure:
as §1
(ADP-Glo first removes unused ATP, then detects ADP through luciferase.)

The target of the next test is EGFR (Homo sapiens, UniProt P00533). Briefly: EGFR MALDI. Particulars: read-out: Target #1 IC50. On the procedure:
as §1

Chain of EGFR (P00533 25-1210, species assumed): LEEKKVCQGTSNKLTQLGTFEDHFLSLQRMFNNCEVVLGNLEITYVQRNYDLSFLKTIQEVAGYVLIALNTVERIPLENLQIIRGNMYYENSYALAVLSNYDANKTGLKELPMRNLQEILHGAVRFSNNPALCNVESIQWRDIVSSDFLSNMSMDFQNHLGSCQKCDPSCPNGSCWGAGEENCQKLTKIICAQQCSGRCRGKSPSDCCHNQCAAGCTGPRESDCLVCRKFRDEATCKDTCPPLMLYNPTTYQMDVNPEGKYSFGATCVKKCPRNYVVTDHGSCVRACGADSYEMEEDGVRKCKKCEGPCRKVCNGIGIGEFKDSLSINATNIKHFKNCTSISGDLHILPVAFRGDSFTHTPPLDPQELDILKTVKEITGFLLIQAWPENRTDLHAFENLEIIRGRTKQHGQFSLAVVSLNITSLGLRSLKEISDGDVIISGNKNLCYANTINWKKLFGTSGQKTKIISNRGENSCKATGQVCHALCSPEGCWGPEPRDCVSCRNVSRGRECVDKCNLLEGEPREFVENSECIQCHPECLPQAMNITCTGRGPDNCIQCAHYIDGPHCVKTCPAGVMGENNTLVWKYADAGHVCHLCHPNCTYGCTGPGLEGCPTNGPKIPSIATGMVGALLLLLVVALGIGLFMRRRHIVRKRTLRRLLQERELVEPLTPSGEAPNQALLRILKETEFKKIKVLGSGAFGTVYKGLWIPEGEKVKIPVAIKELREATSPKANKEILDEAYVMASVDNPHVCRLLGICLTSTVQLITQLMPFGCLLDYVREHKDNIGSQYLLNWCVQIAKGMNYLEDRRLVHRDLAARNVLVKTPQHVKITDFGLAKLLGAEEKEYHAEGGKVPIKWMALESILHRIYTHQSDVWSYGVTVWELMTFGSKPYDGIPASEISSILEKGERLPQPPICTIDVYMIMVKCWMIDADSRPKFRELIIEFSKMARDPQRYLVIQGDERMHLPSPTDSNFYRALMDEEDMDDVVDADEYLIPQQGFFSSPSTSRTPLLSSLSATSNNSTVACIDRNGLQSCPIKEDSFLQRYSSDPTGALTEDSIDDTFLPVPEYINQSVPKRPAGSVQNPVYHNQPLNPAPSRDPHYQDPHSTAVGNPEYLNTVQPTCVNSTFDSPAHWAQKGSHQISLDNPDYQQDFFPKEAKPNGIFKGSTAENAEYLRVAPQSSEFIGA
Chain of WRN (int.) (Q14191 whole entry, species assumed): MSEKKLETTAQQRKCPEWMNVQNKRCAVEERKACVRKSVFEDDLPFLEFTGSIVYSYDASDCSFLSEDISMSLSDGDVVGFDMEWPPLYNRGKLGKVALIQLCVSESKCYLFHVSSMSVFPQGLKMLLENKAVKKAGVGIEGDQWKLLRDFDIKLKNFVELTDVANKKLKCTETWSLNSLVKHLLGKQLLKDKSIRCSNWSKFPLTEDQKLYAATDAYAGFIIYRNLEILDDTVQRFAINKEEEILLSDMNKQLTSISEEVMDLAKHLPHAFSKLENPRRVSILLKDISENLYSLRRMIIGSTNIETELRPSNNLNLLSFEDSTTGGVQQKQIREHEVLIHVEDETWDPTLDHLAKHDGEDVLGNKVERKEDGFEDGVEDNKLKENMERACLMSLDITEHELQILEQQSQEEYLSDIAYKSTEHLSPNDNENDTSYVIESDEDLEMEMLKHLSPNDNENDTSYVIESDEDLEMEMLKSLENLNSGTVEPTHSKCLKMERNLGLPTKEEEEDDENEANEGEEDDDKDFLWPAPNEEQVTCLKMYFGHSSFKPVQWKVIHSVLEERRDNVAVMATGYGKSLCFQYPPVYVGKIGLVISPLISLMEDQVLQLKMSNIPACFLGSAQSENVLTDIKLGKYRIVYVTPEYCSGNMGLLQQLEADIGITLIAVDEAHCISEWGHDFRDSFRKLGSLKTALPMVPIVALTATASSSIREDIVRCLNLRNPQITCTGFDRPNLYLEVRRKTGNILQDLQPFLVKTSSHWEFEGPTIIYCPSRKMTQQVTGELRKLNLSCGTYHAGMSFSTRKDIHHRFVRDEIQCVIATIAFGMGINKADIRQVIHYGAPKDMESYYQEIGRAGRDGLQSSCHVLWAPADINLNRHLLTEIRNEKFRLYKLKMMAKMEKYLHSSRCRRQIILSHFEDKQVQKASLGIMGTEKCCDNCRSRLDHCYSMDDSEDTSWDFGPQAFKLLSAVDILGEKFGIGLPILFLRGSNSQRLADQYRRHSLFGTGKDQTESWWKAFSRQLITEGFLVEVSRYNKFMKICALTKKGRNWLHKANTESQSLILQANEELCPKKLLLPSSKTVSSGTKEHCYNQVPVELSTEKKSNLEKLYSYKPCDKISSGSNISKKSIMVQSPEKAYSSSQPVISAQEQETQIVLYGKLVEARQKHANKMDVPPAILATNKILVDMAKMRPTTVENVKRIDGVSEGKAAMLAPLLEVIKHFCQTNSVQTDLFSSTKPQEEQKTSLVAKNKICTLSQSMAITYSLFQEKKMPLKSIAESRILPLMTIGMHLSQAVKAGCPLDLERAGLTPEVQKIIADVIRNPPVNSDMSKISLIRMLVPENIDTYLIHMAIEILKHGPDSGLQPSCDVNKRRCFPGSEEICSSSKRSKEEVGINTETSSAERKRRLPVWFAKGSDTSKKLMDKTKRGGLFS

Usually IC50 stands for the concentration that gives 50% inhibition. Take `[Cl-].[Cl-].[Mg+2]` [MgCl2, Magnesium chloride]: the IC50 with off target [1], on WRN (int.), at beta-Catenin, with off target [2], against SOS1 and with off-target (int.) was more than 10 µM each time. The concentration for half-maximal inhibition (IC50) at EGFR is more than 10 µM.

Consider `[Cl][Pd][Cl]` [PdCl2, Palladium(II) chloride], for which the IC50 was more than 10 µM in the test with off target [1]; less than 1 µM on WRN (int.); more than 10 µM at beta-Catenin; more than 10 µM with off target [2]; less than 1 µM against SOS1; less than 1 µM in the test on off-target (int.). Moreover, the IC50 at EGFR was more than 10 µM.

Consider `[Cl][Mn][Cl]` [MnCl2, Manganese(II) chloride], for which the IC50 in the test with off target [1], at WRN (int.), at beta-Catenin, in the test with off target [2], against SOS1 and in the test on off-target (int.) was more than 10 µM each time. Further, the half-maximal inhibitory concentration (IC50) at EGFR is more than 10 µM.

`[Cl-].[Cl-].[Co+2]` [CoCl2, Cobalt(II) chloride]: the half-inhibitory concentration (IC50) with off target [1], on WRN (int.), on beta-Catenin, in the test on off target [2], at SOS1 and with off-target (int.) was more than 10 µM in each case. In addition, the half-inhibitory concentration (IC50) on EGFR was more than 10 µM.

As to `[Cl][Fe]([Cl])[Cl]` [FeCl3, Iron(III) chloride], the IC50 with off target [1], against WRN (int.), on beta-Catenin, with off target [2], against SOS1 and with off-target (int.) was more than 10 µM each time. Besides, at EGFR, the half-maximal inhibitory concentration (IC50) is more than 10 µM.

As for `[Cl][Au]([Cl])[Cl]` [AuCl3, Gold(III) chloride], the concentration for half-maximal inhibition (IC50) was more than 10 µM in the test on off target [1]; more than 10 µM against WRN (int.); less than 1 µM at beta-Catenin; more than 10 µM in the test with off target [2]; less than 1 µM against SOS1; more than 10 µM with off-target (int.). Moreover, on EGFR, the IC50 was more than 10 µM.

For `[Cl][Cu][Cl]` [CuCl2, Copper(II) chloride], the IC50 with off target [1] was more than 10 µM; at WRN (int.), more than 10 µM; on beta-Catenin, more than 10 µM; in the test on off target [2] it was more than 10 µM; at SOS1, 1 to 10 µM; in the test on off-target (int.) it was more than 10 µM. The IC50 at EGFR is more than 10 µM.

`CC(=O)[O-].[Ag+]` [Ag (CH 3COO), Silver acetate]: the IC50 is more than 10 µM in the test with off target [1]; more than 10 µM on WRN (int.); less than 1 µM on beta-Catenin; more than 10 µM with off target [2]; less than 1 µM at SOS1; more than 10 µM with off-target (int.). The half-inhibitory concentration (IC50) on EGFR was more than 10 µM.

`[Cl][Fe][Cl]` [FeCl2, Iron(II) chloride]: the IC50 in the test with off target [1], against WRN (int.), on beta-Catenin, with off target [2], on SOS1 and with off-target (int.) was more than 10 µM in each case. For the same compound, the IC50 at EGFR was more than 10 µM.

As to `[Cl][Sn][Cl]` [SnCl2, Tin(II) chloride], the half-inhibitory concentration (IC50) with off target [1], against WRN (int.), at beta-Catenin, in the test with off target [2], on SOS1 and in the test on off-target (int.) was more than 10 µM each time. Moreover, the IC50 on EGFR was more than 10 µM.

Take `[Cl][Ni][Cl]` [NiCl2, Nickel(II) chloride]: the IC50 in the test on off target [1], against WRN (int.), at beta-Catenin, in the test on off target [2], against SOS1 and in the test on off-target (int.) was more than 10 µM each time. Moreover, the IC50 on EGFR was more than 10 µM.

Take `[Cl-].[Cl-].[Zn+2]` [ZnCl2, Zinc(II) chloride]: the 50% inhibitory concentration (IC50) with off target [1] was more than 10 µM; against WRN (int.), 1 to 10 µM; at beta-Catenin, more than 10 µM; in the test on off target [2] it was more than 10 µM; against SOS1 it was more than 10 µM; in the test with off-target (int.), more than 10 µM. Besides, at EGFR, the IC50 is more than 10 µM.

Take `O=[N+]([O-])[O-].O=[N+]([O-])[O-].O=[N+]([O-])[O-].[Al+3]` [Al(NO3)3, Aluminum nitrate]: the IC50 in the test with off target [1] was more than 10 µM; against WRN (int.), more than 10 µM; on beta-Catenin, more than 10 µM; in the test on off target [2] it was more than 10 µM; against SOS1, more than 10 µM; in the test with off-target (int.) it was 1 to 10 µM. In addition, the IC50 at EGFR is more than 10 µM.
